Assay results reported in patent US20230017045A1, “PYRIDINE AND PYRIMIDINE CARBOXYLATE HERBICIDES AND METHODS OF USE THEREOF” (Dow AgroSciences LLC, priority 2017, published 2023).

test system: test plant species; experiment: Post-emergent herbicidal activity test (greenhouse, foliar spray, visual growth reduction); format: in vivo; settings: post-emergence, 336 h, ALOMY: blackgrass (Alopecurus myosuroides), 140 g ai/ha, 14 days after application, read-out: Visual Growth Reduction (%) 14 Days After Application, ALOMY
Protocol: Post-emergent Test: Seeds or nutlets of the desired test plant species were planted in Sun Gro Metro-Mix® 360 planting mixture, which typically has a pH of 6.0 to 6.8 and an organic matter content of about 30 percent, in plastic pots with a surface area of 64 square centimeters. In some aspects, to ensure good germination and healthy plants, a fungicide treatment and/or other chemical or physical treatment was applied. The plants were grown for 7-21 d in a greenhouse with an approximate 15 h photoperiod which was maintained at 23-29° C. during the day and 22-28° C. during the night. Nutrients and water were added on a regular basis and supplemental lighting was provided with overhead metal halide 1000-Watt lamps as necessary. Plants were used for testing when they reached the first or second true leaf stage. A weighed amount, determined by the highest rate to be tested, of each test compound was placed in a 25 mL glass vial and was dissolved in 4 mL of a 97:3 v/v mixture of acetone and DMSO to obtain concentrated stock solutions. […] The concentrated stock solutions obtained were diluted with 20 mL of an aqueous mixture containing acetone, water, isopropyl alcohol, DMSO, […] crop oil concentrate, and X-77 surfactant in a 48.5:39:10:1.5:1.0:0.02 v/v ratio to obtain spray solutions containing the application rate. Compound requirements are based upon a 12 mL application volume at a rate of 187 liters per hectare (L/ha). Formulated compounds were applied to the plant material with an overhead Mandel track sprayer equipped with […] nozzles calibrated to deliver 187 L/ha over an application area of 0.64 square meters at a spray height of 18 inches (43 cm) above the average plant canopy height. Control plants were sprayed in the same manner with the solvent blank. The treated plants and control plants were placed in a greenhouse as described above and watered by subirrigation to prevent wash-off of the test compounds. After 14 d, the condition of the test plants as compared with that of the nontreated and control plants was determined visually and scored on a scale of 0 to 100 percent where 0 corresponds to no injury and 100 corresponds to complete control. In the reporting of the results, Table A: Percent Growth Reduction Conversion Table was used.

| SMILES | pest or weed control at 140 g/ha |
| --- | --- |
| COC(=O)c1nc(-c2cc3c(cc2F)OC(F)(F)O3)ccc1Cl [F172, Methyl 3-chloro-6-(2,2,6-trifluorobenzo[d] [1,3]dioxol-5-yl)picolinate] | 30 to 44% |
| O=C(O)c1nc(-c2ccc(C(F)(F)F)nc2)c(Cl)cc1Cl [F84, 3,5-dichloro-6′-(trifluoromethyl)-[2,3′-bipyridine]-6-carboxylic acid] | 0 to 29% |

same assay, conditions: post-emergence, 336 h, AMARE: redroot pigweed (Amaranthus retroflexus), 140 g ai/ha, 14 days after application, read-out: Visual Growth Reduction (%) 14 Days After Application, AMARE

| SMILES | pest or weed control at 140 g/ha |
| --- | --- |
| COC(=O)c1nc(-c2cc3c(cc2F)OC(F)(F)O3)ccc1Cl [F172, Methyl 3-chloro-6-(2,2,6-trifluorobenzo[d] [1,3]dioxol-5-yl)picolinate] | 95 to 100% |
| O=C(O)c1nc(-c2ccc(C(F)(F)F)nc2)c(Cl)cc1Cl [F84, 3,5-dichloro-6′-(trifluoromethyl)-[2,3′-bipyridine]-6-carboxylic acid] | 0 to 29% |

same assay, conditions: post-emergence, 336 h, AVEFA: wild oat (Avena fatua), 140 g ai/ha, 14 days after application, read-out: Visual Growth Reduction (%) 14 Days After Application, AVEFA

| SMILES | pest or weed control at 140 g/ha |
| --- | --- |
| COC(=O)c1nc(-c2cc3c(cc2F)OC(F)(F)O3)ccc1Cl [F172, Methyl 3-chloro-6-(2,2,6-trifluorobenzo[d] [1,3]dioxol-5-yl)picolinate] | 30 to 44% |
| O=C(O)c1nc(-c2ccc(C(F)(F)F)nc2)c(Cl)cc1Cl [F84, 3,5-dichloro-6′-(trifluoromethyl)-[2,3′-bipyridine]-6-carboxylic acid] | 0 to 29% |

same assay, conditions: post-emergence, 336 h, CHEAL: lambsquarters (Chenopodium album), 140 g ai/ha, 14 days after application, read-out: Visual Growth Reduction (%) 14 Days After Application, CHEAL

| SMILES | pest or weed control at 140 g/ha |
| --- | --- |
| COC(=O)c1nc(-c2cc3c(cc2F)OC(F)(F)O3)ccc1Cl [F172, Methyl 3-chloro-6-(2,2,6-trifluorobenzo[d] [1,3]dioxol-5-yl)picolinate] | 85 to 94% |
| O=C(O)c1nc(-c2ccc(C(F)(F)F)nc2)c(Cl)cc1Cl [F84, 3,5-dichloro-6′-(trifluoromethyl)-[2,3′-bipyridine]-6-carboxylic acid] | 45 to 59% |

same assay, conditions: post-emergence, 336 h, CIRAR: canada thistle (Cirsium arvense), 140 g ai/ha, 14 days after application, read-out: Visual Growth Reduction (%) 14 Days After Application, CIRAR

| SMILES | pest or weed control at 140 g/ha |
| --- | --- |
| COC(=O)c1nc(-c2cc3c(cc2F)OC(F)(F)O3)ccc1Cl [F172, Methyl 3-chloro-6-(2,2,6-trifluorobenzo[d] [1,3]dioxol-5-yl)picolinate] | 60 to 74% |
| O=C(O)c1nc(-c2ccc(C(F)(F)F)nc2)c(Cl)cc1Cl [F84, 3,5-dichloro-6′-(trifluoromethyl)-[2,3′-bipyridine]-6-carboxylic acid] | 0 to 29% |

same assay, conditions: post-emergence, 336 h, CYPES: yellow nutsedge (Cyperus esculentus), 140 g ai/ha, 14 days after application, read-out: Visual Growth Reduction (%) 14 Days After Application, CYPES

| SMILES | pest or weed control at 140 g/ha |
| --- | --- |
| COC(=O)c1nc(-c2cc3c(cc2F)OC(F)(F)O3)ccc1Cl [F172, Methyl 3-chloro-6-(2,2,6-trifluorobenzo[d] [1,3]dioxol-5-yl)picolinate] | 75 to 84% |
| O=C(O)c1nc(-c2ccc(C(F)(F)F)nc2)c(Cl)cc1Cl [F84, 3,5-dichloro-6′-(trifluoromethyl)-[2,3′-bipyridine]-6-carboxylic acid] | 0 to 29% |

same assay, conditions: post-emergence, 336 h, DIGSA: crabgrass (Digitaria sanguinalis), 140 g ai/ha, 14 days after application, read-out: Visual Growth Reduction (%) 14 Days After Application, DIGSA

| SMILES | pest or weed control at 140 g/ha |
| --- | --- |
| COC(=O)c1nc(-c2cc3c(cc2F)OC(F)(F)O3)ccc1Cl [F172, Methyl 3-chloro-6-(2,2,6-trifluorobenzo[d] [1,3]dioxol-5-yl)picolinate] | 85 to 94% |
| O=C(O)c1nc(-c2ccc(C(F)(F)F)nc2)c(Cl)cc1Cl [F84, 3,5-dichloro-6′-(trifluoromethyl)-[2,3′-bipyridine]-6-carboxylic acid] | 30 to 44% |

same assay, conditions: post-emergence, 336 h, ECHCG: barnyardgrass (Echinochloa crus-galli), 140 g ai/ha, 14 days after application, read-out: Visual Growth Reduction (%) 14 Days After Application, ECHCG

| SMILES | pest or weed control at 140 g/ha |
| --- | --- |
| COC(=O)c1nc(-c2cc3c(cc2F)OC(F)(F)O3)ccc1Cl [F172, Methyl 3-chloro-6-(2,2,6-trifluorobenzo[d] [1,3]dioxol-5-yl)picolinate] | 75 to 84% |
| O=C(O)c1nc(-c2ccc(C(F)(F)F)nc2)c(Cl)cc1Cl [F84, 3,5-dichloro-6′-(trifluoromethyl)-[2,3′-bipyridine]-6-carboxylic acid] | 0 to 29% |

same assay, conditions: post-emergence, 336 h, IPOHE: ivy-leaf morning glory (Ipomoea hederacea), 140 g ai/ha, 14 days after application, read-out: Visual Growth Reduction (%) 14 Days After Application, IPOHE

| SMILES | pest or weed control at 140 g/ha |
| --- | --- |
| COC(=O)c1nc(-c2cc3c(cc2F)OC(F)(F)O3)ccc1Cl [F172, Methyl 3-chloro-6-(2,2,6-trifluorobenzo[d] [1,3]dioxol-5-yl)picolinate] | 95 to 100% |
| O=C(O)c1nc(-c2ccc(C(F)(F)F)nc2)c(Cl)cc1Cl [F84, 3,5-dichloro-6′-(trifluoromethyl)-[2,3′-bipyridine]-6-carboxylic acid] | 0 to 29% |

same assay, conditions: post-emergence, 336 h, KCHSC: kochia (Bassia scoparia), 140 g ai/ha, 14 days after application, read-out: Visual Growth Reduction (%) 14 Days After Application, KCHSC

| SMILES | pest or weed control at 140 g/ha |
| --- | --- |
| COC(=O)c1nc(-c2cc3c(cc2F)OC(F)(F)O3)ccc1Cl [F172, Methyl 3-chloro-6-(2,2,6-trifluorobenzo[d] [1,3]dioxol-5-yl)picolinate] | 30 to 44% |
| O=C(O)c1nc(-c2ccc(C(F)(F)F)nc2)c(Cl)cc1Cl [F84, 3,5-dichloro-6′-(trifluoromethyl)-[2,3′-bipyridine]-6-carboxylic acid] | 0 to 29% |

same assay, conditions: post-emergence, 336 h, ORYSA: rice (Oryza sativa), 140 g ai/ha, 14 days after application, read-out: Visual Growth Reduction (%) 14 Days After Application, ORYSA

| SMILES | pest or weed control at 140 g/ha |
| --- | --- |
| COC(=O)c1nc(-c2cc3c(cc2F)OC(F)(F)O3)ccc1Cl [F172, Methyl 3-chloro-6-(2,2,6-trifluorobenzo[d] [1,3]dioxol-5-yl)picolinate] | 0 to 29% |
| O=C(O)c1nc(-c2ccc(C(F)(F)F)nc2)c(Cl)cc1Cl [F84, 3,5-dichloro-6′-(trifluoromethyl)-[2,3′-bipyridine]-6-carboxylic acid] | 0 to 29% |

same assay, conditions: post-emergence, 336 h, SETFA: giant foxtail (Setaria faberi), 140 g ai/ha, 14 days after application, read-out: Visual Growth Reduction (%) 14 Days After Application, SETFA

| SMILES | pest or weed control at 140 g/ha |
| --- | --- |
| COC(=O)c1nc(-c2cc3c(cc2F)OC(F)(F)O3)ccc1Cl [F172, Methyl 3-chloro-6-(2,2,6-trifluorobenzo[d] [1,3]dioxol-5-yl)picolinate] | 45 to 59% |
| O=C(O)c1nc(-c2ccc(C(F)(F)F)nc2)c(Cl)cc1Cl [F84, 3,5-dichloro-6′-(trifluoromethyl)-[2,3′-bipyridine]-6-carboxylic acid] | 0 to 29% |

same assay, conditions: post-emergence, 336 h, SORVU: grain sorghum (Sorghum vulgare), 140 g ai/ha, 14 days after application, read-out: Visual Growth Reduction (%) 14 Days After Application, SORVU

| SMILES | pest or weed control at 140 g/ha |
| --- | --- |
| COC(=O)c1nc(-c2cc3c(cc2F)OC(F)(F)O3)ccc1Cl [F172, Methyl 3-chloro-6-(2,2,6-trifluorobenzo[d] [1,3]dioxol-5-yl)picolinate] | 95 to 100% |
| O=C(O)c1nc(-c2ccc(C(F)(F)F)nc2)c(Cl)cc1Cl [F84, 3,5-dichloro-6′-(trifluoromethyl)-[2,3′-bipyridine]-6-carboxylic acid] | 0 to 29% |

same assay, conditions: post-emergence, 336 h, STEME: common chickweed (Stellaria media), 140 g ai/ha, 14 days after application, read-out: Visual Growth Reduction (%) 14 Days After Application, STEME

| SMILES | pest or weed control at 140 g/ha |
| --- | --- |
| COC(=O)c1nc(-c2cc3c(cc2F)OC(F)(F)O3)ccc1Cl [F172, Methyl 3-chloro-6-(2,2,6-trifluorobenzo[d] [1,3]dioxol-5-yl)picolinate] | 0 to 29% |
| O=C(O)c1nc(-c2ccc(C(F)(F)F)nc2)c(Cl)cc1Cl [F84, 3,5-dichloro-6′-(trifluoromethyl)-[2,3′-bipyridine]-6-carboxylic acid] | 0 to 29% |

same assay, conditions: post-emergence, 336 h, TRZAS: wheat, spring (Triticum aestivum), 140 g ai/ha, 14 days after application, read-out: Visual Growth Reduction (%) 14 Days After Application, TRZAS

| SMILES | pest or weed control at 140 g/ha |
| --- | --- |
| COC(=O)c1nc(-c2cc3c(cc2F)OC(F)(F)O3)ccc1Cl [F172, Methyl 3-chloro-6-(2,2,6-trifluorobenzo[d] [1,3]dioxol-5-yl)picolinate] | 45 to 59% |
| O=C(O)c1nc(-c2ccc(C(F)(F)F)nc2)c(Cl)cc1Cl [F84, 3,5-dichloro-6′-(trifluoromethyl)-[2,3′-bipyridine]-6-carboxylic acid] | 0 to 29% |
